Test results from the NIST ThermoML archive (doi:10.1016/j.jct.2016.05.021).

Experiments:
[1] = 100 kPa; for speed of sound: Frequency=3 MHz, Sing-around technique in a fixed-path interferometer; for mass density: Vibrating tube method
[2] = refractive index (Na D-line) (dimensionless); settings: 100 kPa, Standard Abbe refractometry
[3] = xn = mol fraction of the nth substance listed; settings: 100 kPa, Liquid, x1 = 1; for speed of sound: Frequency=3 MHz, Sing-around technique in a fixed-path interferometer; for mass density: Vibrating tube method
[4] = refractive index (Na D-line) (dimensionless); xn = mol fraction of the nth substance listed; settings: 100 kPa, Liquid, Standard Abbe refractometry, x1 = 1

CCCC[n+]1ccn(C)c1.O=S(=O)([N-]S(=O)(=O)C(F)(F)F)C(F)(F)F
Liquid
Settings | mass density, [1] [kg/m3] | refractive index, [2] | speed of sound, [1] [m/s]
298.15 K | 1433.72 | 1.42671 | 1227.9
303.15 K | 1428.95 | 1.42523 | 1216.8
308.15 K | 1424.18 | 1.42374 | 1205.8
313.15 K | 1419.41 | 1.42225 | 1195
318.15 K | 1414.64 | 1.42076 | 1184.2
323.15 K | 1409.87 | 1.41923 | 1173.6

CCCC[n+]1ccn(C)c1.O=S(=O)([N-]S(=O)(=O)C(F)(F)F)C(F)(F)F + O=C1CCCN1
Settings | mass density, [3] [kg/m3] | refractive index, [4] | speed of sound, [3] [m/s]
298.15 K | 1433.72 | 1.42671 | 1227.9
303.15 K | 1428.95 | 1.42523 | 1216.8
308.15 K | 1424.18 | 1.42374 | 1205.8
313.15 K | 1419.41 | 1.42225 | 1195
318.15 K | 1414.64 | 1.42076 | 1184.2
323.15 K | 1409.87 | 1.41923 | 1173.6

O=C1CCCN1 [2-pyrrolidinone]
Metastable liquid
Settings | mass density, [1] [kg/m3] | refractive index, [2] | speed of sound, [1] [m/s]
298.15 K | 1107.16 | 1.48591 | 1634.3
303.15 K | 1103.07 | 1.48403 | 1617.7
308.15 K | 1098.99 | 1.48218 | 1602.3
313.15 K | 1094.9 | 1.48033 | 1585.4
318.15 K | 1090.82 | 1.47841 | 1569.4
323.15 K | 1086.75 | 1.47649 | 1553.5
